Values of other authors as cited in US6613768B1, “Treatment of female arousal disorder” (Lilly ICOS LLC, priority 1999, dated 2003).
Where a name gives a salt, the structure may show the parent alone.

Tested on: postmenopausal women with sexual dysfunction

- women with clitoral discomfort/hypersensitivity who withdrew from the study (of the 7 women affected): 3
- clitoral discomfort and hypersensitivity, number of women (thirty-three postmenopausal women): 7 woman
Structure (SMILES): CCCc1nn(C)c2c(=O)[nH]c(-c3cc(S(=O)(=O)N4CCN(C)CC4)ccc3OCC)nc12 [sildenafil, Sildenafil citrate]
